For data set [1], the target named is T1, receptor tyrosine kinase EGFR (Homo sapiens, UniProt P00533).
T1 construct: purchased Shanghai 3bio Technology Co., Ltd. Lot No. 4018780925
Nature of the data set: Inhibitory effect on receptor tyrosine kinase EGFR (ELISA, Poly(Glu, Tyr)4:1, PY99 antibody). The class given is biochemical. As to conditions: ATP 4 μM, 1 hour at 37° C. The method, boiled down: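 Poly(Glu,Tyr)4:1-coated plates; kinase reaction with 4 μM ATP and compound at 1.0000–0.00024 μg/ml, run 1 h at 37 °C. Phosphotyrosine detected with PY99 and HRP anti-mouse IgG, OPD colour read at A492, and inhibition rate calculated.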

Data set [2] has as its system Human lung cancer cells (A549). Nature of the data set: Anticancer effect in vitro on A549 cells (MTT, GI50). The class given is cell-based. The following applies: A549, 72 hours. The method, then: The inhibitory effect on the cancer cells of the compounds prepared in Example 1-Example 13, Example 20, Example 48, Example 49 and Example 57 was determined in vitro using cancer cells. The results are shown in table 2, and the specific detection methods are as follows:
Human lung cancer cells were (A549, purchased from Shanghai FuMeng Gene Bio-technology Co., Ltd.) cultured in DMEM containing 2 m M/L-glutamine and 10% FBS, and inoculated in 96-well plate, 200 μL/well and 2000 cells per well; the plate was preincubated for 24 hours under the condition of 5% CO2 and 100% relative humidity at 37° C., allowing for cell adherence.
When the cells adhered, the supernatant was removed, and 200 μL drug-containing culture medium was added with different concentration of compounds into each well (in concentration of 20 μg/ml, 12.5 µg/ml, 6.25 μg/ml, […], 1.5625 μg/ml and 0.78125 μg/ml), 3 multiple wells were set up for each drug concentration as well as blank control (cell culture medium without cells), and drug-free control (with no drugs, filled with complete medium in equal amount only), cultured for 72 hours under the condition of 5% CO2 incubator at 37° C. (100% relative humidity).
After the culture ended, the supernatant was carefully removed, and adding 200 μl DMEM culture medium containing 3% FBS with 500 μg/ml MTT into each well, and culturing for 4 hours under the condition of 5% CO2 incubator at 37° C. (100% relative humidity). After the supernatant was discarded, 150 μL DMSO was added in each well for solving. the GI50 value was measured by detecting the absorbance in the 570 nm wavelength.

For data set [3], the system named is human lungs cancer cell strain A549. The data set can be described thus: Tumor inhibitory effect on nude mice bearing A549 tumors. The class given is in vivo. As to the method:
After digesting and detaching the monolayer-cultured human lungs cancer cell strain A549 (purchased from Shanghai FuMeng Gene Bio-technology Co., Ltd.), cells were collected and resuspended in the serum-free culture medium, and the concentration was adjusted to be 2×10^6/0.2 mL. 0.2 mL cell suspension was taken by injector and transplanted under the skin of square scapula behind left armpit of nude mice, 0.2 mL for each mouse. The tumor volume was measured every 2 or 3 days. The nude mice bearing tumors which rapidly grew without any diabrosis were selected after two weeks. Under the condition of asepsis, the tumors were removed, and cut into tumor tissue with the diameter of approximately 2-3 mm, and then inoculate the tissue under the skin of square scapula behind left armpit of nude mice by trocar. After repetition in three generations, the nude mice received administration randomly in groups excluding the ones bearing too large or too small tumors, when the tumor grew to be about 100 mm^3 in volume.
The selected animals were 6-week old BALB/C nude mice. The male mice were 20-22 g in weight and provided by Shanghai Laboratory Animal Center (SIPPR BK) (production permit No. SCXK (Hu) 2008-0016). The experimental period was totally 111 days.
The experiment was randomly divided into 2 groups, the negative control group consisting of 12 mice (solvent administration only) and treatment group consisting of 12 mice (compound C, 100 mg/kg).
Ethanol was used as cosolvent to promote dissolution of compound C, adding 0.5 w/v % carboxymethyl cellulose to form suspension with a 0.5% final concentration of carboxymethyl cellulose and a 10 w/v % final concentration of ethanol, and then, using ultrasound to form uniform suspension. The dosage for intragastric administration was 0.1 ml/10 g, and the negative control group was only subjected to the same solvent. On the first day of experiment, compound C was given 100 mg/kg in the morning and in the evening respectively, and afterwards, 100 mg/kg was given in every morning only. The negative control group was only given 0.1 ml/10 g of 10 v/v % ethanol 0.5 w/v % carboxymethyl cellulose in every morning.
Index: observing state of animals and measuring body weight daily; measuring tumors by calipers every two days. Sacrifice the animal in 24 hours after the last administration and measure the volume and size of tumor. Dissecting the animal and removing the tumor; weighing the tumor and nude mice; and then, drawing the curves of tumor volume and growth, nude mouse weight, tumor inhibition rate and animal death rate.
Tumor diameter measurement is used to observe the antitumor effect of the test substances dynamically. The formula for tumor volume (TV) calculation is: v=0.5×a×b^2(mm^3); wherein, a and b stand for length and width respectively.
The relative tumor volume (RTV) is calculated according to the measurement result; RTV=Vt/V0, wherein V0 is the tumor volume measured at the beginning of administration (i.e. d0) and Vt is the tumor volume at each measurement.
The index to evaluate antitumor activity is relative tumor proliferation rate T/C (%)
In the above formula, TRTV: RTV of treatment group, CRTV: RTV of negative control group.

Where [4] appears, read: A549 in nude mice, 100 mg/kg intragastric, 21st day after administration.

Marks after values point to notes of the source that are not given here.

For orientation: IC50 means the midpoint of a concentration-inhibition curve. As usually defined, the GI50 is the concentration giving 50% growth inhibition.

T1 sequence (P00533 25-1210): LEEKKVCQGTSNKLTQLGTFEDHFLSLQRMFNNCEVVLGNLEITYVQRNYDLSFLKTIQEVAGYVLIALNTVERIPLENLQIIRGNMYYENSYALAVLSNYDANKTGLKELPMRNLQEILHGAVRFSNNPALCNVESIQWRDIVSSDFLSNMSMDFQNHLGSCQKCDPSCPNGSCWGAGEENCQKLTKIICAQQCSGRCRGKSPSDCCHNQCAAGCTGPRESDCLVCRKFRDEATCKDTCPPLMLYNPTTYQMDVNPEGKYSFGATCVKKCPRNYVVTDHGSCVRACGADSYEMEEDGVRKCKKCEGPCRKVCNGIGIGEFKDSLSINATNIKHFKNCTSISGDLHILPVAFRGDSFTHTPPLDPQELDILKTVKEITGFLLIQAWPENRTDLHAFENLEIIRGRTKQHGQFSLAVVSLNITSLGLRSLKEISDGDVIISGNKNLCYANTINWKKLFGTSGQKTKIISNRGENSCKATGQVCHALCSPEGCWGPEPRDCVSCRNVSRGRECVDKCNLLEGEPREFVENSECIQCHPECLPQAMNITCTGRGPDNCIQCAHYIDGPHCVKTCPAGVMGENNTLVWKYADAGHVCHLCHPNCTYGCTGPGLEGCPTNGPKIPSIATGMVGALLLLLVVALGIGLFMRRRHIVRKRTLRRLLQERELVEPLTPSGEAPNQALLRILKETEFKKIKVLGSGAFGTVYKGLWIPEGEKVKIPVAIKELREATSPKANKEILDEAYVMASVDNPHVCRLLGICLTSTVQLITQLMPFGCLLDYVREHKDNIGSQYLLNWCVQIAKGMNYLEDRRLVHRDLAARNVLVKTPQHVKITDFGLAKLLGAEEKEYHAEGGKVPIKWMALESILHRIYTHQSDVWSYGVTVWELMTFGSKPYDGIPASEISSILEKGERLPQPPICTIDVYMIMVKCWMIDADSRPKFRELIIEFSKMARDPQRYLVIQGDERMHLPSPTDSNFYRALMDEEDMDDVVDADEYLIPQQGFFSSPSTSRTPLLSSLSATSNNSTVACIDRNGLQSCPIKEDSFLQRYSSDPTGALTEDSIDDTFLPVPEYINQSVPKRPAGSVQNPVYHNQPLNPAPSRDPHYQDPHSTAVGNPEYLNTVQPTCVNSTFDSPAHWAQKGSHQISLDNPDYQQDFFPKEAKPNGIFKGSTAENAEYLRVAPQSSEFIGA

As for `C#Cc1cccc(Nc2ncnc3cc(OC)c(OCCCN4CC5(C4)CN(C)C(=O)O5)cc23)c1` [Example 49], the IC50 in data set [1] fell in the range of 0.0001 to 0.01 µM. This compound also returned a GI50 in data set [2] of 21 µM.
Regarding `COc1cc2ncnc(Nc3cc(Cl)ccc3F)c2cc1OCCCN1CC[C@H]2OCC[C@H]21` (relative stereo) [Example 20, 4-(5′-chloro-2′-fluorophenylamino)-6-[3-(cis-hexahydrofuro[3,2-b]pyrrole-4-yl)-propoxy]-7-methoxyquinazoline], in data set [1], the IC50 was in the range of 0.01 to 0.1 µM. The compound also yielded a GI50 in data set [2] of 59.5 µM.
In the case of `COc1cc2ncnc(Nc3ccc(F)c(Cl)c3)c2cc1OCCN1CCC2(CCOC2)C1` (stereo not drawn) [Example 8, 4-(3′-chloro-4′-fluorophenylamino)-6-[2-(2-oxa-7-azaspiro[4.4]nonane-7-yl)-oxethyl]-7-methoxyquinazoline], the IC50 in data set [1] is 0.01 to 0.1 µM. This compound also came in with a GI50 in data set [2] of 23.4 µM.
On the same counts, the results for `C#Cc1cccc(Nc2ncnc3cc(OC)c(OCCCN4CC5(CNC(=O)O5)C4)cc23)c1` [Example 48] are 0.0001 to 0.01 µM and 17.8 µM.
`COc1cc2ncnc(Nc3ccc(F)c(Cl)c3)c2cc1OCCN1CC2CCC(C1)O2` [Example 11, 4-(3′-chloro-4′-fluorophenylamino)-6-[2-(8-oxa-3-azabicyclo[3.2.1]octane-3-yl)-oxethyl]-7-methoxyquinazoline] had an IC50 in data set [1] of 0.1 to 1 µM. Besides, the GI50 in data set [2] is 26.6 µM.
Take `COc1cc2ncnc(Nc3ccc(F)c(Cl)c3)c2cc1OCCCN1CC2(CCOCC2)C1` [Example 4, 4-(3′-chloro-4′-fluorophenylamino)-6-[3-(7-oxa-2-azaspiro[3.5]nonane-2-yl)-propoxy]-7-methoxyquinazoline]: the IC50 in data set [1] lay in the range of 0.01 to 0.1 µM. In addition, in data set [2], the GI50 came out at 8.5 µM.
The like results for `COc1cc2ncnc(Nc3ccc(F)c(Cl)c3)c2cc1OCCCN1CC2(COC2)C1` [Example 1, 4-(3′-chloro-4′-fluorophenylamino)-6-[3-(2-oxa-6-azaspiro[3.3]heptane-6-yl)-propoxy]-7-methoxyquinazoline] were, in that order, 0.01 to 0.1 µM and 39.7 µM.
In turn, `COc1cc2ncnc(Nc3ccc(F)c(Cl)c3)c2cc1OCCCN1CCC2(CC1)COC2` [Example 5, 4-(3′-chloro-4′-fluorophenylamino)-6-[3-(2-oxa-7-azaspiro[3.5]nonane-7-yl)-propoxy]-7-methoxyquinazoline] had an IC50 in data set [1] of 0.01 to 0.1 µM. The compound also returned a GI50 in data set [2] of 8.6 µM.
For the compound `COc1cc2ncnc(Nc3ccc(F)c(Cl)c3)c2cc1OCCCN1CCC2(CCOCC2)C1` [Example 9, 4-(3′-chloro-4′-fluorophenylamino)-6-[3-(8-oxa-2-azaspiro[4.5]decane-2-yl)-propoxy]-7-methoxyquinazoline], the IC50 in data set [1] was 0.01 to 0.1 µM. For the same compound, the GI50 in data set [2] was 24.3 µM.
Turning to `COc1cc2ncnc(Nc3ccc(F)c(Cl)c3)c2cc1OCCCN1CCC2(COC2)C1` [Example 2, 4-(3′-chloro-4′-fluorophenylamino)-6-[3-(2-oxa-6-azaspiro[3.4]octane-6-yl)-propoxy]-7-methoxyquinazoline], it took 20.4 µM to inhibit growth in data set [2] by half (GI50). Further, the “body weight of the nude mice compared with the control group” value in data set [3] (100 mg/kg intragastric, FIG. 1) is listed as “consistent fluctuation”. In addition, the “average tumor weight compared with the negative group” value in data set [3] (21st day after administration, 100 mg/kg, P<0.05) is listed as “less than the negative group”. Also, in data set [3] (setting [4]), the Tumor mass was 0.55 ± 0.43 g and the Tumor volume is given as 515.4 ± 388.0** mm^3. For the same compound, the Tumor inhibition rate in data set [3] (A549 in nude mice, 100 mg/kg intragastric, from tumor weight) amounted to 47.62%. In addition, in data set [3] (A549 in nude mice, 100 mg/kg intragastric, relative tumor proliferation rate), the T/C % is listed as 43.44%. This compound also had an RTV in data set [3] (A549 in nude mice, 100 mg/kg intragastric, relative tumor volume Vt/V0) of 4.57 ± 2.11. The “tumor volume and size compared with the control group” value in data set [3] (two weeks after administration, 100 mg/kg, p<0.05, FIG. 2) is “significantly less than the control group”.

The values above are taken from patent US9546179B2, “Heterocycle amido alkyloxy substituted quinazoline derivative and use thereof” (priority 2011, dated 2017).
